The results in this text go back to ChEMBL document CHEMBL1201862, “PubChem BioAssay data set” (2004).

Active and inactive are the calls of the source. Bounds are passed on as bounds.

The test system of one series is INS1. The experiment in a line: beta cell apoptosis inhibitors, cytokine rescue, dose response, luminescence, retest (AID 449756).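 Further: cell death triggered by IL-1 beta plus TNF-alpha plus IFN-gamma mixture; protective hits raise ATP signal compared with cytokine alone wells.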 The note with it: Rattus norvegicus. The class given is functional, cell-based.
In another series the target is Cytochrome P450 2C19 (Homo sapiens, UniProt P33261). Description: Cytochrome panel assay with activity outcomes. Panel member name: p450-cyp2c19 Compounds with AC50 equal or less than 10 uM are considered active. The class given is functional.
Chain of Cytochrome P450 2C19 (P33261 whole entry): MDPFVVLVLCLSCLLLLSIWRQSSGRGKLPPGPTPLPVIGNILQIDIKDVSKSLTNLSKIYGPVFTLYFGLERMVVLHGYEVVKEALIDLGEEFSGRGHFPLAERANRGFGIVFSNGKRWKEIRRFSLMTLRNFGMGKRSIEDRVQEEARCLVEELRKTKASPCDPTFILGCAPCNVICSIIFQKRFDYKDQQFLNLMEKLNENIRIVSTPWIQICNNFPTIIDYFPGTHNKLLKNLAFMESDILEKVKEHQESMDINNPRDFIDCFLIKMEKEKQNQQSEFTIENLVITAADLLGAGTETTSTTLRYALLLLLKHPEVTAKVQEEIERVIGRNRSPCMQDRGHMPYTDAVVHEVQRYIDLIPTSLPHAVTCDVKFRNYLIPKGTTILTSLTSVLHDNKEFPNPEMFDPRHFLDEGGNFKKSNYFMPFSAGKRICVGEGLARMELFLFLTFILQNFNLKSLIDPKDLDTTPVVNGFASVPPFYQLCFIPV
Series [1] in a line: HEp-2 cell cytotoxicity, dose response, cytotoxicity control for RSV inhibitor project, HTS (AID 2410). In kind it is functional. The conditions noted are these: human respiratory syncytial virus.
A short description of series [2]: inhibitors of SNCA 5'UTR-driven reporter translation, confirmation, H4 neuroglioma cells, luminescence (AID 1988). The class given is functional, cell-based.
Series [3] is described as follows: Luminescence Cell-Based Dose Response HTS to Identify Inhibitors of 5'UTR Stem-Loop Driven Prion Protein mRNA Translation in H4 Neuroglioblastoma Cells. [Related pubchem assays: 1827 (Project Summary), 1813 (Primary HTS)]. The class given is functional.
Series [4] can be described thus: inhibitors of firefly luciferase expression or activity, dose response, H4 neuroglioma cells, luminescence (AID 1990). The class given is functional, cell-based.
Series [5] has as its target T1, Corticotropin-releasing factor receptor 2/Corticotropin-releasing factor-binding protein (Homo sapiens, UniProt P24387+Q13324).
T1 sequence (Q13324 whole entry): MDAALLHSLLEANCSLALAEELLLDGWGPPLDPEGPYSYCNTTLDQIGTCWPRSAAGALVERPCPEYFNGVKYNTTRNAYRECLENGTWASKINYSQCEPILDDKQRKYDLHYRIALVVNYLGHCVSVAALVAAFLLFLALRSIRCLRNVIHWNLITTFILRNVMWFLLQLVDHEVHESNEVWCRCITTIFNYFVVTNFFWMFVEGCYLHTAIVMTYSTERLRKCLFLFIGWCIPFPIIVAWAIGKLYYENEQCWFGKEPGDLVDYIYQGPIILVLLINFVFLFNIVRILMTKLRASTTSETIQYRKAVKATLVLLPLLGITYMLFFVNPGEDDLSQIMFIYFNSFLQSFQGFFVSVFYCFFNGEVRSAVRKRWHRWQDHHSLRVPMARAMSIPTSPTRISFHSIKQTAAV
T1 sequence (P24387 whole entry): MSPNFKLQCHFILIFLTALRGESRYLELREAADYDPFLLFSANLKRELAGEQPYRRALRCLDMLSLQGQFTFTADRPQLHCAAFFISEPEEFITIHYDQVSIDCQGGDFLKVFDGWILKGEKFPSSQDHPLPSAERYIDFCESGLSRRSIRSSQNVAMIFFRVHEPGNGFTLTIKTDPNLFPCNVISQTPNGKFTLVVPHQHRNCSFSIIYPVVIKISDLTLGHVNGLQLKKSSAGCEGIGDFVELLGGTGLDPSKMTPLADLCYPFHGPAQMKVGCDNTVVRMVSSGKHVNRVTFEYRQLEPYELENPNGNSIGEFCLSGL
The experiment in a line: activators of CRF receptor 2 with binding protein – uHTS hits, confirmation (AID 602473). The conditions noted are these: read-out: EC50_Mean. In kind it is functional.

Series [6] addresses T2, Rac GTPase-activating protein 1 (Homo sapiens, UniProt Q9H0H5).
T2 sequence (Q9H0H5 whole entry): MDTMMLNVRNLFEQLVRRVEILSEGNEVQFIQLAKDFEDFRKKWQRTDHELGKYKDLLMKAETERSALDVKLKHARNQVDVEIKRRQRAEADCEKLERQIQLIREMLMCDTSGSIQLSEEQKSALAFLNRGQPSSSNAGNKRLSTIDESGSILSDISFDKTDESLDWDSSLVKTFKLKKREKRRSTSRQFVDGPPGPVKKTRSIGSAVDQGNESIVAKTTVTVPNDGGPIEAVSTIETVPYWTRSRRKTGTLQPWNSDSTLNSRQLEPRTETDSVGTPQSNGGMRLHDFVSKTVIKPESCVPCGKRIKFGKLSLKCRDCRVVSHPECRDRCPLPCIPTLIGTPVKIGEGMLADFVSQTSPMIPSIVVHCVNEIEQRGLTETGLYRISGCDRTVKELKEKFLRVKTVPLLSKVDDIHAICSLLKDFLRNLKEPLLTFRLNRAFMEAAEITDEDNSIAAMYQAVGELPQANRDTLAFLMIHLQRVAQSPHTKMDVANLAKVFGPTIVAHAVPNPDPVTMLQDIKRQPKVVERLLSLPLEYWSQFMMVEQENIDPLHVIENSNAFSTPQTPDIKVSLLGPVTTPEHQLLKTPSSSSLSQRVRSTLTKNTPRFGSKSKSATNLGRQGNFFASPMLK
Description: MgcRacGAP GTPase-activating activity inhibitors, confirmation, biochemical, ADP Hunter fluorescence, primary and confirmatory (AID 624330). In kind it is functional.

Another series concerns H4. Description: Luminescence Cell-Based Dose Response HTS to Identify Activators of 5'UTR Stem-Loop Driven Prion Protein mRNA Translation in H4 Neuroglioblastoma Cells. [Related pubchem assays: 1829 (Project Summary), 1814 (Primary HTS)]. The class given is functional. The note with it: Homo sapiens.
For the next series, the target named is Cytochrome P450 2C9 (Homo sapiens, UniProt P11712).
Chain of Cytochrome P450 2C9 (P11712 whole entry): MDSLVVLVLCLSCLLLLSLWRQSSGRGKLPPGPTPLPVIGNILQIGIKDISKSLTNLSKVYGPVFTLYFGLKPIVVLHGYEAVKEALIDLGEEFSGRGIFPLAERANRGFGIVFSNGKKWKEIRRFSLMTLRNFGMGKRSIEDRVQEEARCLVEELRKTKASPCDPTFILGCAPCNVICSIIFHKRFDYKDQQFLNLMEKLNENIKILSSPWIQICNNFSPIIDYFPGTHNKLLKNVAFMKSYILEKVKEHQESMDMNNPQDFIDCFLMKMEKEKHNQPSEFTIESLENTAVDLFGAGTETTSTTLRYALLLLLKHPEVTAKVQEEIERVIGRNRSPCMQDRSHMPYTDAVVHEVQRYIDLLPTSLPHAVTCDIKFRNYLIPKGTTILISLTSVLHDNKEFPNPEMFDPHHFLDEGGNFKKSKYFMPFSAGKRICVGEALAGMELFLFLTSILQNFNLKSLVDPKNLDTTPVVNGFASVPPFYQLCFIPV
The next series concerns the target T3, Cytochrome P450 1A2 (Homo sapiens, UniProt P05177).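 Further: PubChem cytochrome P450 panel assay, CYP1A2 panel member.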
T3 sequence (P05177 whole entry): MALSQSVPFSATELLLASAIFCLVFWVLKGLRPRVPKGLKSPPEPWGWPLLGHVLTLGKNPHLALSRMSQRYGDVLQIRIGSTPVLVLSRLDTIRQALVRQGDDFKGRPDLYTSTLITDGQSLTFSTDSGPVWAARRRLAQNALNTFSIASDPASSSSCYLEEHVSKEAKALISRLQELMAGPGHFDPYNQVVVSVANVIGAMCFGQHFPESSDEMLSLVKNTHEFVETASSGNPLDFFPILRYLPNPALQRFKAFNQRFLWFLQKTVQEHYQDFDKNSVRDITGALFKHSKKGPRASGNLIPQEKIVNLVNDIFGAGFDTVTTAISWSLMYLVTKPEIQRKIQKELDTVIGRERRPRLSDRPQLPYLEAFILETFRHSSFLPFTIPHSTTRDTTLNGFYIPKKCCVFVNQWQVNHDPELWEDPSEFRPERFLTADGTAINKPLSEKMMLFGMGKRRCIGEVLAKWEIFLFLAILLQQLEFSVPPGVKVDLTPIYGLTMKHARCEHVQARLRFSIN

Series [7] deals with T4, Heat shock factor protein 1 (Mus musculus, UniProt P38532).
T4 sequence (P38532 whole entry): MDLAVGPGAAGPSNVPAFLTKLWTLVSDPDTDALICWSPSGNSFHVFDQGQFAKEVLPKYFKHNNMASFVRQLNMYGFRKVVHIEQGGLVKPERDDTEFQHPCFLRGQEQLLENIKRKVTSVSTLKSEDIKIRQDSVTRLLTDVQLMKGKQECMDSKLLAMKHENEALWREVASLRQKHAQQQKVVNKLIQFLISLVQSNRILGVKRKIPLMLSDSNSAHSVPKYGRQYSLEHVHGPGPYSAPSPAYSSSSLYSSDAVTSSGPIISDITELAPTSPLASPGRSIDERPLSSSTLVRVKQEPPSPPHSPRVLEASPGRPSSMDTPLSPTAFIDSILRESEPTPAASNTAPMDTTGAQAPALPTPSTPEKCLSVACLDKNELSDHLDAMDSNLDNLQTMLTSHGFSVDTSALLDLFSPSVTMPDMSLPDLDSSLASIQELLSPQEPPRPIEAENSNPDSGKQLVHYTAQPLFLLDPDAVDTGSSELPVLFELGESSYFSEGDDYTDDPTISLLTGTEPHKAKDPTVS
Description: HSF1 potentiators in luciferase reporter cells, confirmation, cell-based, NIH3T3, luminescence, dose retest (AID 435004).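 Further: stress induced by proteasome inhibitor MG132 added 30 min after compound; luciferase reporter driven by HSF1 response element in NIH3T3 cells; actives raise luminescence as potentiators of the MG132 stress response.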 In kind it is functional.

The target in another series is Cytochrome P450 3A4 (Homo sapiens, UniProt P08684).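 Further: CYP3A4 tested as one member of a cytochrome P450 panel screen.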
Chain of Cytochrome P450 3A4 (P08684 whole entry): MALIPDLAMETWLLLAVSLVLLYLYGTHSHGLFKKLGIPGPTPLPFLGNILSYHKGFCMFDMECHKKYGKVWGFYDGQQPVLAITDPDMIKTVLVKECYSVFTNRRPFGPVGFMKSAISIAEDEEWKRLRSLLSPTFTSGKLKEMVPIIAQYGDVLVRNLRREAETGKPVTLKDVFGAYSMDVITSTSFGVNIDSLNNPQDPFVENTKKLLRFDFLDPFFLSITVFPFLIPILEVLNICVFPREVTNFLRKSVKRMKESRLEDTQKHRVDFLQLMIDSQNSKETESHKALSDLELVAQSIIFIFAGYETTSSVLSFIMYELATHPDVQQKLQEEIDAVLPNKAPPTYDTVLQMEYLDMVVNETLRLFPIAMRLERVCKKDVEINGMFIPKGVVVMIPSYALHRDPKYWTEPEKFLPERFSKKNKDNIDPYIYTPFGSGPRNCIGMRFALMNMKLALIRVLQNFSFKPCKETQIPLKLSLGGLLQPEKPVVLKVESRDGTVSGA

Turning to `CCOc1ccc(S(=O)(=O)N2CCCCC2)cc1NC(=O)CN1CCCC1c1cccs1` (stereo unspecified), the AC50 (usually the midpoint of the concentration-response curve, whichever way the signal moves) with INS1 was 4.23 µM (active).
As for `COC(=O)[C@H]1C[C@@H]1[C@H](NC(=O)c1cc(C)nn1C)c1ccccc1`, on Cytochrome P450 2C19 (read-out: AC50), the AC50 was 15.8 µM (inconclusive).
With `Cc1nc(N2CCN(S(=O)(=O)c3ccc(F)cc3)CC2)c2c(-c3cccs3)csc2n1`, the CC50 (in general, the concentration giving 50% cytotoxicity) in series [1] is 16.8 µM (active).
As for `O=C(c1cccs1)N1CCN(C(=O)C(c2ccccc2)c2ccccc2)CC1`, the AC50 on Cytochrome P450 2C19 (read-out: AC50) is 25.1 µM (inconclusive).
For the compound `COc1ccc(CC(=O)Nc2cc3oc4ccccc4c3cc2OC)cc1`, the CC50 in series [1] was > 50 µM (active).
With `Cc1cc(/C=C2/SC(=S)N(c3cccc(C(F)(F)F)c3)C2=O)c(C)n1-c1cccnc1`, the EC50 in series [2], in series [3] and in series [4] was > 120 µM (not active) each time.
As for `CCOC(=O)c1ccc(NC(=S)N2CCSC2c2ccc(Cl)cc2)cc1` (stereo unspecified), the CC50 in series [1] was 16.9 µM (active). Further, in series [5], the EC50 is 4.71 µM (active).
On to `COc1cc(/C=N/n2c(S)nnc2-c2cc(C)[nH]n2)cc(OC)c1O`, for which the IC50 (commonly the concentration needed to halve the response being measured) in series [6] is 69.3 µM (active).
With `COc1cc(CNc2ccc3[nH]c(O)nc3c2)ccc1OCc1cccc(C)c1`, the IC50 in series [6] was 236 µM (active).
Turning to `Nc1c(C(=O)Nc2ccccc2Cl)nnn1-c1ccc2c(c1)OCCO2`, the EC50 in the series with H4 is > 120 µM (not active).
Regarding `Nc1ccc2c(c1)Nc1ccccc1CC2`, the IC50 in series [6] was 27.2 µM (active).
For `COc1ccc(CN(C)CCc2ccccn2)c(OC)c1OC`, the IC50 in series [6] is 134 µM (active).
Consider `CC/C(=N\CCc1c(C)[nH]c2ccccc12)C1=C(O)CC(c2ccccc2)CC1=O` (stereo unspecified), for which the EC50 in series [2] was > 120 µM (not active); in [3], 11.7 µM (active); in series [4], > 30 µM (not active).
On to `CCCCOc1ccc(CNC(=S)N/N=C/c2ccc(OC)c(OC)c2)cc1`, for which the CC50 in [1] is 41.2 µM (active).
As for `O=C(c1cc(C(F)(F)F)cc(C(F)(F)F)c1)N1CCC2(CCCN(Cc3nccs3)C2)CC1`, the AC50 result on Cytochrome P450 2C19 is on record as “inconclusive”.
Consider `COCC(C)NCc1ccc(OC)c(Br)c1` (stereo unspecified), for which the IC50 in series [6] is 167 µM (active).
Consider `COc1ncc2nc(-c3cn(C)c4ccccc34)c(=O)n(C)c2n1`, for which the half-maximal activity concentration (AC50) entry at Cytochrome P450 2C19 is recorded as “inconclusive”.
Take `CCOC(=O)C(NC(=O)CC)(Nc1sc2c(c1C(=O)OC)CCN(C)C2)C(F)(F)F` (stereo unspecified): the AC50 at Cytochrome P450 2C9 is 15.8 µM (inconclusive); at Cytochrome P450 2C19 (read-out: AC50), 2.51 µM (inconclusive); at Cytochrome P450 1A2, 10 µM (inconclusive).
Turning to `O=C1N=C(N2CCOCC2)S/C1=C\c1ccccc1OS(=O)(=O)c1ccccc1`, the results for the EC50 in series [2], in series [3] and in series [4] were > 120 µM (not active), > 120 µM (not active) and 14.8 µM (active), respectively.
On to `COc1ccc(/C=N/N2CCN(C)CC2)cc1O`, for which the IC50 in series [6] was 39.2 µM (active).
Regarding `Cc1cc(C)c(OCCCCN(C)Cc2ccccc2)c(C)c1`, the IC50 in series [6] was 120 µM (active).
Regarding `O=C(CSc1ccc(Cl)cc1)Nc1ccc(N2CCN(C(=O)c3ccc(Cl)cc3)CC2)cc1`, the AC50 on Cytochrome P450 2C19 (read-out: AC50) is 14.1 µM (inconclusive).
As to `Cc1cc2nnc(SCC(=O)N3CCN(c4ccccc4)CC3)n2c(N)n1`, the AC50 is 25.1 µM (inconclusive) on Cytochrome P450 2C9 and “inconclusive” on Cytochrome P450 2C19.
On to `COc1ccc(F)cc1C(=O)C1CCCN(C(=O)c2ccccc2N(C)C)C1` (stereo unspecified), for which the CC50 in [1] is 28.1 µM (active).
Turning to `O=c1c(-c2cccc(Cl)c2)c[nH]n1-c1ccccc1`, the IC50 in series [6] was 59.6 µM (active).
As to `Cc1ccc([N+](=O)[O-])c(OCCN2CCCCCC2)c1`, the AC50 in the series on INS1 was 4.9 µM (active).
In the case of `COc1ccc(CNC(=O)C(c2ccc(C)o2)N(C(=O)c2csnn2)c2ccc(C(C)C)cc2)cc1` (stereo unspecified), the EC50 in series [7] was 73.7 µM (active).
For `Cc1c(Cl)cccc1NC(=O)CCC(=O)NNC(=O)c1ccco1`, the AC50 entry on Cytochrome P450 2C19 is reported as “inconclusive”.
Regarding `CCN(CC)c1ccc(/C=N/N(c2ccccc2)c2ccccc2)c(O)c1`, the AC50 with INS1 was 5.2 µM (active).
On to `Nc1nc(N)c(/N=N\c2ccc(C(=O)O)c(O)c2)c(N)n1`, for which the AC50 at Cytochrome P450 2C19 (read-out: AC50) is 0.631 µM (inconclusive).
Consider `O=C(NCc1nnc(S)n1-c1ccccc1)c1ccc(S(=O)(=O)N2CCOCC2)cc1`, for which the AC50 on Cytochrome P450 2C9 is 14.1 µM (inconclusive); on Cytochrome P450 3A4 it was 31.6 µM (inconclusive); at Cytochrome P450 2C19 (read-out: AC50), 25.1 µM (inconclusive).
Take `CCOC(=O)Cn1nnc(-c2cccc(OC)c2)n1`: the EC50 in series [7] is > 260 µM (inactive).
Turning to `C[C@H]1[C@@H](OC(=O)CCC(=O)O)O[C@@H]2OC3(C)CC[C@H]4[C@H](C)CC[C@@H]1[C@@]24OO3`, the EC50 in series [2], in [3] and in series [4] was > 120 µM (not active) in each case.
Turning to `NCCSc1nc(-c2ccccc2)c(-c2ccccc2)o1`, the values for the AC50 on Cytochrome P450 2C19 (read-out: AC50) and on Cytochrome P450 1A2 were 0.00794 µM (inconclusive) and 3.16 µM (inconclusive), respectively.
For the compound `O=C(NCCn1cccn1)C1CCC(=O)N(CCc2cccc(F)c2)C1` (stereo unspecified), in [7], the EC50 is > 260 µM (inactive).
As for `O=C(O)CSc1nnnn1-c1ccc2c(c1)OCCO2`, the EC50 in series [7] is > 260 µM (inactive).
